In the supplement of paper PMC9663587:

Legend:
[1] = compound: CC(=O)O[C@H]1C(=O)[C@@]2(C)[C@H]([C@H](OC(=O)c3ccccc3)[C@]3(O)C[C@H](OC(=O)[C@H](O)[C@@H](NC(=O)c4ccccc4)c4ccccc4)C(C)=C1C3(C)C)[C@]1(OC(C)=O)CO[C@@H]1C[C@@H]2O [Paclitaxel]
[2] = compound: C1=CC2=C(C=CC(=C2)C=C3C(=O)NC(=NCC4=CC=CS4)S3)N=C1 [R0-3306]
[3] = compound: T1, CN1CC[C@H](c2c(O)cc(O)c3c(=O)cc(-c4ccccc4Cl)oc23)[C@H](O)C1 [Flavopiridol]
[4] = compound: CCC1=CN=CN=C1N2CCN(CC2)CC3=NC4=C(N3)C=C(C=C4)C(F)(F)F
[5] = compound: NC1(C(=O)N[C@@H](CCO)c2ccc(Cl)cc2)CCN(c2nc[nH]c3nccc2-3)CC1 [AZD5363]
[6] = compound: T2, CC(=O)c1c(C)c2cnc(Nc3ccc(N4CCN(CCOCCOCCOCCNC(=O)COc5cccc6c5C(=O)N(C5CCC(=O)NC5=O)C6=O)CC4)cn3)nc2n(C2CCCC2)c1=O [BSJ-03-123]
[7] = compound: CO[C@@H](C)Cn1c(=O)n(C)c2cnc3ccc(-c4cncc(C(C)(C)O)c4)cc3c21
[8] = compound: CCOc1cc2ncc(C#N)c(Nc3ccc(OCc4ccccn4)c(Cl)c3)c2cc1NC(=O)/C=C/CN(C)C [Neratinib/HKI272]
[9] = compound: CC(C)Nc1cc(-c2c[nH]c(C(=O)N[C@H](CO)c3cccc(Cl)c3)c2)c(Cl)cn1 [BVD523]
[10] = compound: CCN1CCN(Cc2ccc(Nc3ncc(F)c(-c4cc(F)c5nc(C)n(C(C)C)c5c4)n3)nc2)CC1; experiment: GR value, 72 h; higher = faster growth (1 = untreated, <0 = killing);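 note: breast cancer and non-malignant breast epithelial lines, nine half-log doses, viable cells counted by Hoechst and LIVE/DEAD dye imaging versus time-zero plates and DMSO controls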
[11] = compound: C=CC(=O)Nc1ccc(C(=O)Nc2[nH]nc3c2CN(C(=O)N[C@H](CN(C)C)c2ccccc2)C3(C)C)cc1 [YKL-5-124]; experiment: as above
[12] = compound: CCc1cnn2c(NCc3ccc[n+]([O-])c3)cc(N3CCCC[C@H]3CCO)nc12; experiment: as above
[13] = compound: T1, Flavopiridol; experiment: as above
[14] = compound: T2, BSJ-03-123; experiment: as above
[15] = compound: CN(C)C/C=C/C(=O)Nc1ccc(C(=O)Nc2cccc(Nc3ncc(Cl)c(-c4c[nH]c5ccccc45)n3)c2)cc1 [THZ1]; experiment: as above
[16] = compound: CN(C)C/C=C/C(=O)Nc1ccc(C(=O)N2CCC[C@@H](Nc3ncc(Cl)c(-c4c[nH]c5ccccc45)n3)C2)cc1 [THZ531]; experiment: as above
[17] = compound: CN(C)C(=O)c1cc2cnc(Nc3ccc(N4CCNCC4)cn3)nc2n1C1CCCC1 [LEE011/Ribociclib]; experiment: as above
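Throughout, for GR50, 72 h: breast cancer and non-malignant breast epithelial cell lines, Deep Dye Drop or Dye Drop imaging, nine half-log doses, GR normalized to time-zero plates and DMSO-only controls.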

Question: Which results are given for EVSAT?
Answer: GR50, 72 h [1]: 0.00167 µM; GR50, 72 h [2]: 5.54 µM; GR50, 72 h [3]: 0.369 µM; GR50, 72 h [4]: > 10 µM; GR50, 72 h [5]: 0.0128 µM; GR50, 72 h [6]: 3.31 µM; GR50, 72 h [7]: 0.00155 µM; GR50, 72 h [8]: > 3.16 µM; GR50, 72 h [9]: > 10 µM; GR value ([10]; 0.001 µM): 0.973 GR; GR value ([10]; 0.003162 µM): 0.947 GR; GR value ([10]; 0.01 µM): 0.933 GR; GR value ([10]; 0.03162 µM): 0.853 GR; GR value ([10]; 0.1 µM): 0.761 GR; GR value ([10]; 0.3162 µM): 0.679 GR; GR value ([10]; 1 µM): 0.521 GR; GR value ([10]; 3.162 µM): 0.393 GR; GR value ([10]; 10 µM): -0.545 GR; GR value ([11]; 0.001 µM): 0.327 GR; GR value ([11]; 0.003162 µM): 0.292 GR; GR value ([11]; 0.01 µM): 0.215 GR; GR value ([11]; 0.03162 µM): 0.13 GR; GR value ([11]; 0.1 µM): 0.0905 GR; GR value ([11]; 0.3162 µM): 0.0313 GR; GR value ([11]; 1 µM): 0.019 GR; GR value ([11]; 3.162 µM): -0.0275 GR; GR value ([11]; 10 µM): -0.412 GR; GR value ([12]; 0.0001 µM): 0.951 GR; GR value ([12]; 0.0003162 µM): 0.967 GR; GR value ([12]; 0.001 µM): 0.959 GR; GR value ([12]; 0.003162 µM): 0.994 GR; GR value ([12]; 0.01 µM): 1.01 GR; GR value ([12]; 0.03162 µM): 0.299 GR; GR value ([13]; 0.0001 µM): 1.01 GR; GR value ([13]; 0.0003162 µM): 1.06 GR; GR value ([13]; 0.001 µM): 1.02 GR; GR value ([13]; 0.003162 µM): 0.984 GR; GR value ([13]; 0.01 µM): 0.925 GR; GR value ([13]; 0.03162 µM): 0.97 GR; GR value ([13]; 0.1 µM): 0.917 GR; GR value ([13]; 0.3162 µM): 0.619 GR; GR value ([13]; 1 µM): -0.514 GR; GR value ([14]; 0.001 µM): 0.994 GR; GR value ([14]; 0.003162 µM): 0.961 GR; GR value ([14]; 0.01 µM): 0.922 GR; GR value ([14]; 0.03162 µM): 0.885 GR; GR value ([14]; 0.1 µM): 0.851 GR; GR value ([14]; 0.3162 µM): 0.819 GR; GR value ([14]; 1 µM): 0.724 GR; GR value ([14]; 3.162 µM): 0.67 GR; GR value ([14]; 10 µM): 0.0632 GR; GR value ([15]; 0.0001 µM): 1.02 GR; GR value ([15]; 0.0003162 µM): 0.993 GR; GR value ([15]; 0.001 µM): 0.991 GR; GR value ([15]; 0.003162 µM): 0.946 GR; GR value ([15]; 0.01 µM): 0.975 GR; GR value ([15]; 0.03162 µM): 0.705 GR; GR value ([15]; 0.1 µM): 0.232 GR; GR value ([15]; 0.3162 µM): -0.363 GR; GR value ([16]; 0.0001 µM): 0.995 GR; GR value ([16]; 0.0003162 µM): 0.952 GR; GR value ([16]; 0.001 µM): 1 GR; GR value ([16]; 0.003162 µM): 1.01 GR; GR value ([16]; 0.01 µM): 1.07 GR; GR value ([16]; 0.03162 µM): 1.06 GR; GR value ([16]; 0.1 µM): 0.745 GR; GR value ([16]; 0.3162 µM): 0.0467 GR; GR value ([17]; 0.001 µM): 0.968 GR; GR value ([17]; 0.003162 µM): 0.932 GR; GR value ([17]; 0.01 µM): 0.956 GR; GR value ([17]; 0.03162 µM): 0.939 GR; GR value ([17]; 0.1 µM): 0.901 GR; GR value ([17]; 0.3162 µM): 0.821 GR; GR value ([17]; 1 µM): 0.862 GR; GR value ([17]; 3.162 µM): 0.813 GR; GR value ([17]; 10 µM): 0.616 GR
